Test system: Caco-2 monolayers
Assay: Apical to basolateral permeability of LY through Caco-2 monolayers (Transwell, 12-well)
Type: in vitro ADME, human
Conditions: for LY Papp, µ best fit of Normal distribution to Papp / LY Papp, µ directly from Papp: single sampling at 60 min
Method: Caco-2 cells culture and monolayers preparation was as described in the reference protocol. Cells were maintained in T75 cm^2 flasks in culture medium (DMEM supplemented with 1% (v/v) NEAA, 10% (v/v) heat-inactivated FBS), in a humidified atmosphere of 5% CO2 at 37 °C. As recommended in the reference protocol, the permeability assays were performed using cells in passages 95–105. The cells were thawed on passage 89 and sub-cultured twice a week at or shortly before 90% confluency by a 1:8 split. To avoid seeding aggregated cells and the formation of multilayers in Transwell™ inserts, the cell clusters were disaggregated into single cells by passing them 3 times through a syringe needle of 23 gauges (BD Falcon) before cell counting. Caco-2 cells were seeded at 2.6 × 10^5 cells/cm^2 on 12-well polycarbonate filter inserts. The culture medium (with 1% (v/v) Pen/Strep) was replaced by fresh medium 6 h following seeding and then every 2–3 days thereafter until transport experiments.
The reference protocol was followed in the permeability assays, with slight modifications as required by the new experimental approach. Manipulation of the cell monolayers was conducted under sterile conditions (in the laminar flow hood or incubator). At the day of the experiments, the culture medium was removed and HBSS (further supplemented with 25 mM HEPES, 0.35 g/L sodium bicarbonate, pH 7.4) pre-warmed to 37 °C was added to the donor (0.5 mL) and receiver (1.5 mL) sides to wash the cell monolayers. The plate containing the inserts was placed (lid-covered) in an incubator without CO2 at 37 °C with an orbital shaker (IKA-Schüttler MTS4, JMGS, Lisboa, Portugal) at 50 rpm for 8 min. The washing step was repeated with new HBSS. The TEER was measured in HBSS at 37 °C using a Millicell® ERS-2 voltmeter equipped with a chopstick electrode pair (Merck, Lisboa, Portugal). A filter insert without cells was included in each set of experiments for correction of the TEER value for the background resistance. The resistance values (Ω cm^2) of the cell monolayers were obtained by subtracting the TEER value from blank inserts and multiplying by the surface area of the insert. All cell monolayers presented TEER values above 200 Ω cm^2. At least one insert of the set was fixed and stained for confocal microscopy analysis (see next section). The remaining ones were used to perform the apical to basolateral permeability assays with the paracellular marker LY. For this, the donor HBSS washing solution was decanted, and the inserts were placed into empty wells of a fresh 12-well plate. The permeability assay was initiated with the addition of 450 µL of the LY solution (20 µM in HBSS at 37 °C) simultaneously to the donor compartments of 3 to 4 insert, from which a 50 µL aliquot was immediately collected and stored for the calculation of the solute concentration in the donor compartment at t = 0. The inserts containing the LY solution were subsequently positioned in a pre-prepared 12-well plate containing HBSS (1.2 mL per well), and the lid-covered plate was placed on the incubator (without CO2, 50 rpm and 37 °C). At the defined sampling times, the plate was positioned into the laminar flow hood and the inserts were transferred into new wells containing fresh HBSS. The high fluorescence quantum yield of LY allows its detection by […], even for the very small amount expected to permeate during short permeation intervals. In this work we used 10, 20, 30, and 60 min or 60 min only as sampling times. At the end of the assay, inserts were transferred to empty wells and 50 µL was taken from the donor compartment for the calculation of the solute mass balance. The remaining solution was decanted, the inserts were placed on new wells containing 1.5 mL of pre-warm HBSS, and 0.5 mL of pre-warmed HBSS was added to each insert for TEER measurements. Some selected monolayers were prepared for microscopy; the remaining were incubated with culture media for re-use, as described below. […]

[1] = day 22, both sampling intervals (10 or 60 min)

Lucifer yellow CH di-potassium salt [LY]
LY Papp, µ best fit of Normal distribution to Papp (all days, all (88)): 1.9 10^-7 cm/s
LY Papp, µ directly from Papp (all days, all (88)): 2.1 10^-7 cm/s
LY Papp, µ best fit of Normal distribution to Papp (all days, re-use (41)): 1.6 10^-7 cm/s
LY Papp, µ directly from Papp (all days, re-use (41)): 1.8 10^-7 cm/s
LY QA, µ from Log(QA) (all days, single use & re-use, 1st 10 min (65)): 0.18%
LY QA, µ from Log(QA) (all days, single use & re-use, 1st 60 min (88)): 0.20%
LY QA, µ from Log(QA) (all days, single use & re-use, 2nd 10 min (66)): 0.21%
LY QA, µ from Log(QA) (all days, single use & re-use, 3rd 10 min (62)): 0.25%
LY QA, µ from Log(QA) (all days, single use & re-use, 4th 30 min (62)): 0.35%
LY QA, µ from Log(QA) (all days, single use & re-use, all 1st samplings (153)): 0.19%
LY QA, µ from Log(QA) (all days, single use & re-use, all samplings (346)): 0.23%
LY Papp, µ best fit of Normal distribution to Papp (all days, single use (47)): 2.1 10^-7 cm/s
LY Papp, µ directly from Papp (all days, single use (47)): 2.4 10^-7 cm/s
LY Papp, µ best fit of Normal distribution to Papp (day 22, all (35)): 2.0 10^-7 cm/s
LY Papp, µ directly from Papp (day 22, all (35)): 2.3 10^-7 cm/s
QA (%), µ, LY transported during first sampling interval (day 22, batch 1, passage 95, single use, one-time sampling (60 min)): 0.18%
QA (%), µ, LY transported during first sampling interval (day 22, batch 1, passage 98, single use, multi-time sampling (10 min)): 0.19%
QA (%), µ, LY transported during first sampling interval (day 22, batch 1, passage 100, single use, multi-time sampling (10 min)): 0.36%
QA (%), µ, LY transported during first sampling interval (day 22, batch 1, passage 104, single use, multi-time sampling (10 min)): 0.16%
QA (%), µ, LY transported during first sampling interval (day 22, batch 1, passage 105, single use, multi-time sampling (10 min)): 0.22%
QA (%), µ, LY transported during first sampling interval (day 22, batch 2, passage 95, single use, one-time sampling (60 min)): 0.27%
QA (%), µ, LY transported during first sampling interval (day 22, batch 2, passage 98, single use, one-time sampling (60 min)): 0.30%
QA (%), µ, LY transported during first sampling interval (day 22, batch 3, passage 95, single use, one-time sampling (60 min)): 0.19%
LogQA, centre of Normal distribution [1]: around −0.6
QA, amount of LY that reaches the acceptor compartment [1]: around 0.2%
LY QA, µ from Log(QA) (day 22, single use, 1st 10 min (27)): 0.25%
LY QA, µ from Log(QA) (day 22, single use, 1st 60 min (35)): 0.21%
LY QA, µ from Log(QA) (day 22, single use, 2nd 10 min (28)): 0.29%
LY QA, µ from Log(QA) (day 22, single use, 3rd 10 min (26)): 0.37%
LY QA, µ from Log(QA) (day 22, single use, 4th 30 min (28)): 0.48%
LY QA, µ from Log(QA) (day 22, single use, all 1st samplings (62)): 0.23%
LY QA, µ from Log(QA) (day 22, single use, all samplings (144)): 0.30%
LY Papp, µ best fit of Normal distribution to Papp (day 25, all (29)): 1.7 10^-7 cm/s
LY Papp, µ directly from Papp (day 25, all (29)): 1.9 10^-7 cm/s
QA (%), µ, LY transported during first sampling interval (day 25, batch 1, passage 95, re-use, one-time sampling (60 min)): 0.21%
QA (%), µ, LY transported during first sampling interval (day 25, batch 1, passage 95, single use, one-time sampling (60 min)): 0.13%
QA (%), µ, LY transported during first sampling interval (day 25, batch 1, passage 98, single use, multi-time sampling (10 min)): 0.10%
QA (%), µ, LY transported during first sampling interval (day 25, batch 1, passage 100, re-use, multi-time sampling (10 min)): 0.25%
QA (%), µ, LY transported during first sampling interval (day 25, batch 1, passage 104, single use, multi-time sampling (10 min)): 0.14%
QA (%), µ, LY transported during first sampling interval (day 25, batch 1, passage 105, re-use, multi-time sampling (10 min)): 0.20%
QA (%), µ, LY transported during first sampling interval (day 25, batch 2, passage 95, re-use, one-time sampling (60 min)): 0.16%
QA (%), µ, LY transported during first sampling interval (day 25, batch 2, passage 98, single use, one-time sampling (60 min)): 0.25%
QA (%), µ, LY transported during first sampling interval (day 25, batch 3, passage 95, re-use, one-time sampling (60 min)): 0.19%
LY Papp, µ best fit of Normal distribution to Papp (day 25, re-use (23)): 1.7 10^-7 cm/s
LY Papp, µ directly from Papp (day 25, re-use (23)): 1.9 10^-7 cm/s
LY QA, µ from Log(QA) (day 25, re-use, 1st 10 min (16)): 0.22%
LY QA, µ from Log(QA) (day 25, re-use, 1st 60 min (23)): 0.18%
LY QA, µ from Log(QA) (day 25, re-use, 2nd 10 min (16)): 0.28%
LY QA, µ from Log(QA) (day 25, re-use, 3rd 10 min (16)): 0.27%
LY QA, µ from Log(QA) (day 25, re-use, 4th 30 min (16)): 0.38%
LY QA, µ from Log(QA) (day 25, re-use, all 1st samplings (39)): 0.20%
LY QA, µ from Log(QA) (day 25, single use & re-use, 1st 10 min (22)): 0.19%
LY QA, µ from Log(QA) (day 25, single use & re-use, 1st 60 min (29)): 0.18%
LY QA, µ from Log(QA) (day 25, single use & re-use, 2nd 10 min (22)): 0.25%
LY QA, µ from Log(QA) (day 25, single use & re-use, 3rd 10 min (22)): 0.25%
LY QA, µ from Log(QA) (day 25, single use & re-use, 4th 30 min (22)): 0.36%
LY QA, µ from Log(QA) (day 25, single use & re-use, all 1st samplings (51)): 0.18%
LY QA, µ from Log(QA) (day 25, single use & re-use, all samplings (117)): 0.23%
LY Papp, µ directly from Papp (day 25, single use (6)): 2.1 10^-7 cm/s
LY QA, µ from Log(QA) (day 25, single use, 1st 10 min (6)): 0.12%
LY QA, µ from Log(QA) (day 25, single use, 1st 60 min (6)): 0.18%
LY QA, µ from Log(QA) (day 25, single use, 2nd 10 min (6)): 0.19%
LY QA, µ from Log(QA) (day 25, single use, 3rd 10 min (6)): 0.20%
LY QA, µ from Log(QA) (day 25, single use, 4th 30 min (6)): 0.31%
LY QA, µ from Log(QA) (day 25, single use, all 1st samplings (12)): 0.15%
LY Papp, µ best fit of Normal distribution to Papp (day 28, all (24)): 1.8 10^-7 cm/s
LY Papp, µ directly from Papp (day 28, all (24)): 2.2 10^-7 cm/s
QA (%), µ, LY transported during first sampling interval (day 28, batch 1, passage 95, re-use, one-time sampling (60 min)): 0.33%
QA (%), µ, LY transported during first sampling interval (day 28, batch 1, passage 95, single use, one-time sampling (60 min)): 0.39%
QA (%), µ, LY transported during first sampling interval (day 28, batch 1, passage 98, single use, multi-time sampling (10 min)): 0.09%
QA (%), µ, LY transported during first sampling interval (day 28, batch 1, passage 100, re-use, multi-time sampling (10 min)): 0.09%
QA (%), µ, LY transported during first sampling interval (day 28, batch 1, passage 104, single use, multi-time sampling (10 min)): 0.23%
QA (%), µ, LY transported during first sampling interval (day 28, batch 1, passage 105, re-use, multi-time sampling (10 min)): 0.06%
QA (%), µ, LY transported during first sampling interval (day 28, batch 2, passage 95, re-use, one-time sampling (60 min)): 0.11%
QA (%), µ, LY transported during first sampling interval (day 28, batch 2, passage 98, single use, one-time sampling (60 min)): 0.26%
QA (%), µ, LY transported during first sampling interval (day 28, batch 3, passage 95, re-use, one-time sampling (60 min)): 0.17%
LY Papp, µ best fit of Normal distribution to Papp (day 28, re-use (18)): 1.4 10^-7 cm/s
LY Papp, µ directly from Papp (day 28, re-use (18)): 1.8 10^-7 cm/s
LY QA, µ from Log(QA) (day 28, re-use, 1st 10 min (10)): 0.07%
LY QA, µ from Log(QA) (day 28, re-use, 1st 60 min (18)): 0.16%
LY QA, µ from Log(QA) (day 28, re-use, 2nd 10 min (10)): 0.08%
LY QA, µ from Log(QA) (day 28, re-use, 3rd 10 min (8)): 0.11%
LY QA, µ from Log(QA) (day 28, re-use, 4th 30 min (10)): 0.19%
LY QA, µ from Log(QA) (day 28, re-use, all 1st samplings (28)): 0.12%
LY QA, µ from Log(QA) (day 28, single use & re-use, 1st 10 min (16)): 0.09%
LY QA, µ from Log(QA) (day 28, single use & re-use, 1st 60 min (24)): 0.19%
LY QA, µ from Log(QA) (day 28, single use & re-use, 2nd 10 min (16)): 0.10%
LY QA, µ from Log(QA) (day 28, single use & re-use, 3rd 10 min (14)): 0.13%
LY QA, µ from Log(QA) (day 28, single use & re-use, 4th 30 min (16)): 0.20%
LY QA, µ from Log(QA) (day 28, single use & re-use, all 1st samplings (40)): 0.14%
LY QA, µ from Log(QA) (day 28, single use & re-use, all samplings (86)): 0.14%
LY Papp, µ directly from Papp (day 28, single use (6)): 3.3 10^-7 cm/s
LY QA, µ from Log(QA) (day 28, single use, 1st 10 min (6)): 0.15%
LY QA, µ from Log(QA) (day 28, single use, 1st 60 min (6)): 0.32%
LY QA, µ from Log(QA) (day 28, single use, 2nd 10 min (6)): 0.14%
LY QA, µ from Log(QA) (day 28, single use, 3rd 10 min (6)): 0.15%
LY QA, µ from Log(QA) (day 28, single use, 4th 30 min (6)): 0.24%
LY QA, µ from Log(QA) (day 28, single use, all 1st samplings (12)): 0.22%
